What is called inhibition is the percentage by which the read-out fell short of the control. Higher therefore signals a response far below the control. By GI50 is commonly meant the concentration at which growth is held to half of that of the control.

Consider two molecules from publication PMC11199504, “New hemisynthetic derivatives of sphaeropsidin phytotoxins triggering severe endoplasmic reticulum swelling in cancer cells” (Scientific Reports, 2024).

The subject of assay [1] is NKCC. Conditions: cited from earlier work.
Assay [2] deals with chymotrypsin-like activity of the proteasome (Homo sapiens, UniProt P28074). In words: Cellular proteasomal chymotrypsin-like activity. Format: cell-based. The note with it: 13 at 1 µM, 6 h of treatment, both SKMEL-28 and U373. As to the method:
The chemotrypsin-like, trypsin-like and caspase-like activities of the proteasome were evaluated in cells with the G8660, G8861 and G8761 kits respectively according to the manufacturer’s instructions (Promega, USA). Briefly, the assays are based on the use of short amino-acid sequences coupled with luciferin and that can be specifically cleaved by each catalytic unit of the proteasomal complex. For this purpose, cells were seeded in 96 well plates 24 h before their treatment with 1 (5 µM), 13 (1 µM) for 6 h or with the positive control MG132 (1 µM) for 24 h. At the end of the treatments, cells were washed three times with PBS and permeabilized with digitonin (0.5 mg/mL; 50 µL per well) under shaking for 10 min. Then, 50 µL of a mixture of the substrate of interest and luciferase were added for 15 min under slow shaking. Luminescence levels quantified with the Active-Glo LR-100 luminometer (DSLabs, Suisse) were normalized according the number of viable cells evaluated in parallel in the same conditions by means of MTT assay.

The test system of assay [3] is U373 cells. As to the kind of experiment: Annexin-V/propidium iodide staining by flow cytometry. Format: cell-based, human. Conditions: 24 h of treatment. As to the method: (§1) Cell death induced by compounds 1 and 13 was evaluated by means of the double annexin-V/propidium iodide staining by flow cytometry with the FITC Annexin V apoptosis detection kit from BD Pharmingen (USA) according to the manufacturer’s instructions. Briefly, cells were cultured and treated in 25 cm^2 flasks. At the end of the treatment, all cells (adherent and floating cells) were collected, washed and resuspended at 10^6 cells/mL. 100 µL of the cell suspension were stained with 5 µL of FITC-annexin-V and 5 µL of propidium iodide for 15 min at rt in the dark. 400 µL of buffer were then added before data acquisition of 10,000 events per sample (Gallios, Beckman Coulter, Belgium). Caspase activation is usually evaluated to confirm or not the apoptotic feature of the cell death induced. For this purpose, we used the caspase-3, -8 and 9 multiplex assay (Ab219915, Abcam, UK) following manufacters’ instructions. In this assay, cells were exposed to short peptidic sequences linked to different fluorochromes and that could be specifically cleaved by each of these caspases. This assay thereby allowed simultaneous evaluation of the three caspase activities thanks to the quantification of the three fluorophores released in a SynergyMX plate fluorimeter (Biotek, USA).

The test system of assay [4] is SKMEL-28 and U373 cells. As to the kind of experiment: Reversibility assay. Format: cell-based, human. The note with it: after 6 h of treatment, both cell lines. As to the method: The reversibility of the effects induced by compounds 13 was evaluated through qualitative microscopic observation of the cell cultures (morphology and confluence of the cell culture) over time after having been exposed or not to the compound for 1, 3 or 6 h. Negative control corresponds to untreated cells while positive control corresponds to cells treated with 13 continuously over the whole experiment. Briefly, 6 × 10^4 cells per well were seeded in 6 well plates and incubated for 24 h before their use. Culture medium was then replaced by fresh medium with or without compound 13. After 1, 3 or 6 h of treatment, cells were washed and the culture medium was renewed. Pictures were taken at different time points starting at t = 0 when the treatment was applied to the cells, 6 h, 24 h and 72 h thereafter.

For assay [5], the system named is 60 cancer cell line panel. In words: NCI 60 cancer cell line panel testing. Format: cell-based. An excerpt:
Cell lines are grouped by cancer type [origin]. Determination of the concentration that reduced by 50 % the
Log10 differences are represented by the bars. If a cell line is more sensitive , the bar is on the right , if it is less
sensitive, the bar is on the left. Similar data are represen ted for the 50 % lethal concentration [LC 50] of each
(1 picture or pasted object on this page, not shown here)

In assay [6] the test system is caspase-8. As to the kind of experiment: Caspase multiplex assay, caspase-8 in SKMEL-28. Format: cell-based, human. The note with it: SKMEL-28 cells, 15 h of treatment. As for the experimental part: as §1
Assay [7] relates to caspase-3. In words: Caspase multiplex assay, caspase-3 in SKMEL-28. Format: cell-based, human. Conditions: SKMEL-28 cells, 15 h of treatment. As to the method:
as §1

Assay [8] deals with caspase-3, -8 and 9. In words: Caspase-3, -8 and -9 multiplex assay in U373. Format: cell-based, human. Conditions: U373 cells, until 24 h of treatment. As for the experimental part: as §1

Molecules are shown by their SMILES.

chymotrypsin-like activity of the proteasome, sequence (P28074 60-263): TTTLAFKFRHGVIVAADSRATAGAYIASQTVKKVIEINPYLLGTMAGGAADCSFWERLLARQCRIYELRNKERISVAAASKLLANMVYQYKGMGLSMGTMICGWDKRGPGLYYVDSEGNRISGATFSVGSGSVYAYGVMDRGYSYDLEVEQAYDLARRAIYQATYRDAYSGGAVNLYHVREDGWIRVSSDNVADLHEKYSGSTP

On to `C=C[C@]1(C)C=C2C(=O)[C@@]3(O)OC(=O)[C@@]4(CCCC(C)(C)[C@H]34)[C@@]2(O)CC1` [Compound 1, sphaeropsidin A, reference compound], for which the “concentration inhibiting NKCC activity” value in assay [1] was “low micromolar”.

In assay [2], `CC1(C=CCCCc2ccc3ccc4cccc5ccc2c3c45)C=C2C(=O)C3(O)OC(=O)C4(CCCC(C)(C)C34)C2(O)CC1` (stereo not drawn) [Compound 13] yielded an inhibition at 1 µM of more than 60%. In addition, in assay [3], the “cells positive to annexin-V” value was “more than 60%”. Moreover, the reversibility of effects entry in assay [4] is recorded as “irreversible”. For the same molecule, in assay [5] (NCI 60 cancer cell line panel, read-out: global mean LC50), the CC50 is 1500 nM. Besides, in assay [5] (NCI, 48 h of culture, read-out: mean GI50 against the 60 cancer cell line panel), the 50% growth inhibitory concentration (GI50) was found to be 190 nM. Also, in assay [6], the caspase-8 activity entry is listed as “markedly increased”. Further, the caspase-3 activity result in assay [7] is recorded as “markedly increased”. Also, the caspase activation result in assay [8] is reported as “no caspase activation could be detected”.
